Measurements as given in patent publication US20250332268A1, “CONJUGATE AND COMPOSITION AS WELL AS PREPARATION METHOD THEREFOR AND USE THEREOF” (priority 2022, published 2025).
Read-outs that look alike come from different tables or passages of the source. Non-standard residues stand in square brackets, D forms with d. Residues, ends and D or L forms follow the SMILES beside them. *: point of attachment. {Cy5} = Cy5 fluorescent dye; Dolaproine = CO[C@@H]([C@@H]1CCCN1)[C@@H](C)C(=O)O; Dil = CC[C@H](C)[C@H](NC)[C@@H](CC(=O)O)OC; X1 = C[C@@H](N*)[C@@H](O)c1ccccc1; NMeV = CN[C@H](C(=O)O)C(C)C

Key:
[1] = system: U118MG glioma cells subcutaneous tumor; assay: In vivo anti-tumor activity, tumor volume (Experimental Example 3); set-up: species or system NOD-SCID mice
Protocol: In this experimental example, the in vivo anti-tumor activity of the resulting conjugate 20 in mice was investigated.
The mice in this experiment were purchased from SPF Co., Ltd, the germline was NOD-SCID, the grade was SPF, male, 6-8 weeks old; U118MG glioma cells were purchased from Jennio.
The above culture medium containing U118MG cells was inoculated on subcutaneous site of the right forelimb of mice, and the injection volume was 100 μL. Each mouse was inoculated with 1×10^7 U118MG glioma cells.
The above resulting conjugate AP2 was formulated into 1.94 mg/mL of solution with PBS. Conjugate 20 was formulated into 0.625 mg/mL, 1.25 mg/mL and 2.06 mg/mL of solution with PBS, respectively (all calculated based on the amount of oligonucleotide). […]
For test group 3d, the above conjugate 20 solution with a concentration of 0.625 mg/mL was administered by tail intravenous injection with a single administration volume of 10 μL/g, a single administration dosage of […] (calculated based on the mass of oligonucleotide), wherein the dosage of MMAE contained was equivalent to 0.3 mg/kg. […]
Long diameter and short diameter of the tumors were measured by in vitro measurement method. The tumor volume was calculated according to the formula ½(long diameter×short diameter^2). […]

[2] = system: U118MG subcutaneous tumor; assay: In vivo activity of long-interval administration against U118MG subcutaneous tumor model mice (Experimental Example 7); set-up: species or system NOD-SCID mice; settings: MMAE only, 0.1 mg/kg and 0.3 mg/kg subcutaneous on D8, D11, D15, D29, D32, D36
Protocol: According to the method of experimental example 2, 42 mice inoculated with U118MG subcutaneous tumor were obtained, and the mice were kept after injection.
MMAE was dissolved into solutions with a concentration of 0.03 mg/mL and 0.01 mg/mL with 10% DMSO+90% serum-free DMEM medium (volume ratio); conjugate 21 was dissolved into a solution with a concentration of 0.5 mg/mL and 0.165 mg/mL (calculated according to aptamer); and comparative conjugate 25 was dissolved into solutions with a concentration of 0.5 mg/mL and 0.165 mg/mL (calculated according to aptamer). […] The mice were weighed before administration, and the administration volume was calculated by weight.
For blank control group, each mouse was administered with DMEM medium with a single administration volume of 10 μL/g mouse body weight; For test group 7a, each mouse was administered with MMAE with a concentration of 0.01 mg/ml with a single administration volume of 10 μL/g mouse body weight. It was calculated that a single administration dosage was 0.1 mg/kg.
For test group 7b, each mouse was administered with conjugate 21 with a concentration of 0.165 mg/ml with a single administration volume of 10 μL/g mouse body weight. It was calculated that a single administration dosage was 1.65 mg/kg (the corresponding MMAE dosage was 0.1 mg/kg). […]

[3] = system: U118MG orthotopic tumor (brain glioma); settings: mouse, in vivo, iv, 3 mg/kg
Protocol: (§1) U118MG human glioma cells (purchased from Guangzhou Jennio Biotech Co., Ltd) were cultured in DMEM complete medium (MACGENE company, Cat No. CM15019) supplemented with 10% fetal bovine serum (FBS, RMBIO company) at 37° C. in an incubator containing 5% CO2/95% air.
(§2) The cells were digested with 0.25% pancreatic enzyme and collected. The supernatant was aspirated, and the cells were resuspended in DMEM medium supplemented with 10% FBS to formulate into cell culture medium with a concentration of 4×10^7 cells/mL.
(§3) Experimental animals were 6 NOD-SCID mice, male, 12 weeks old (purchased from SPF (Beijing) Biotechnology Co., LTD.). The above cell culture medium was inoculated into NOD-SCID mice. […]
(§4) The administration dosage of all animals was calculated based on their body weights, the administration volume was all 10 μL/g, the administration dosage was 3 mg/kg per animal (calculated based on the amount of aptamer), 2 mice were administrated in each group and designated as test group 4a and control group 4b, respectively. […]
(§5) 24 h after administration, one mouse in each group was respectively killed and brain tissue was taken, and the remaining mice were killed at 48 h after administration and brain tissues were taken. The brain tissues of mice were taken for fluorescence imaging in IVIS Lumina Series III.

[4] = system: U118MG orthotopic tumor (brain glioma); assay: In vivo distribution in U118MG cell orthotopic tumor model mice, brain fluorescence imaging (Experimental Example 4); settings: 24 h and 48 h after administration; 3 mg/kg tail intravenous injection
Protocol: as §1, §2, §3, §4, §5

[5] = system: A549 subcutaneous tumor (human lung adenocarcinoma cells); assay: In vivo activity against A549 subcutaneous tumor model mice (Experimental Example 9); settings: administered D8, D12, D15, D19 (MMAE equivalent 0.3 mg/kg) and D46, D50, D54 (0.6 mg/kg); versus 9b (MMAE) and 9e (comparative conjugate 24)
Protocol: According to the method of experimental example 2, 30 mice inoculated with A549 subcutaneous tumors were obtained, and the mice were kept after injection.
Conjugate 20 and conjugate 21 were dissolved into conjugate solutions with a concentration of 1 mg/mL (calculated according to aptamer) with serum-free DMEM medium. Comparative conjugate 24 were dissolved into a conjugate solution with a concentration of 0.8 mg/mL (calculated according to aptamer). MMAE was dissolved into a solution with a concentration of 0.06 mg/mL with 10% DMSO+90% serum-free DMEM medium (volume ratio).
7 days after the inoculation of A549 human lung cancer cells, all mice were grouped, with 6 mice in each group, and each mouse was administrated. The day of administration was designated as D8. The mice were weighed before administration, and the administration volume was calculated by the mouse body weight. […]
For blank control group 9a, each mouse was administered with DMEM with a single administration volume of 5 μL/g mouse body weight; For control group 9b, each mouse was administered with MMAE with a single administration volume of 5 μL/g mouse body weight. It was calculated that a single administration dosage was 0.3 mg/kg; […]
Tumor volumes were measured on D1, D9, D16, D19, D22, D26, D30, D36, D40, D43, D47, D50, D54, and D57. The blank control group was measured on D50, and then the experiment was terminated. […]

Compound: CC[C@H](C)[C@@H]([C@@H](CC(=O)N1CCC[C@H]1[C@H](OC)[C@@H](C)C(=O)N[C@H](C)[C@@H](O)c1ccccc1)OC)N(C)C(=O)[C@@H](NC(=O)[C@@H](NC)C(C)C)C(C)C [MMAE, Monomethyl auristatin E, reference compound] (H-[NMeV]V[Dil][Dolaproine]-X1)
- increase rate of tumor volume ([1]; control group 3c, 0.3 mg/kg tail intravenous injection on D8, D12, D16, D20): increase rate of tumor volume was decreased
- increase rates of tumor volume [2]: slightly decreased

Compound: CY5-CmUmGmGmAmGmUmUmCmAmGmAmCmGmUmGmUmUmGmCmUmCmUmUmCmCmGmAmUmCmUmCm (DNA CUGGAGUUCAGACGUGUUGCUCUUCCGAUCUC; all 2'-O-methyl, 5' {Cy5}, backbone not given here) [AP2]
- tumor volume over time ([1]; control group 3b, 15.5 mg/kg tail intravenous injection on D8, D12, D16, D20): increased rapidly
- fluorescence signal in brain tissue [3]: strong fluorescence signals at the inoculation tumor location

Compound: CY5-UfCfUfAUfGGCfUfGCfCfGAUfCfUfGGUfCfUfCfCfAUfGUfACfGUf (UCUAUGGCUGCCGAUCUGGUCUCCAUGUACGU; 2'-fluoro at CU, RNA at AG, 5' {Cy5}, backbone not given here) [Comparative AP19]
- fluorescence signal in brain tissue [4]: no fluorescence signal at all in the brain

Compound: MMAE-CmUmGmGmAmGmUmUmCmAmGmAmCmGmUmGmUmUmGmCmUmCmUmUmCmCmGmAmUmCmUmCm (DNA CUGGAGUUCAGACGUGUUGCUCUUCCGAUCUC; all 2'-O-methyl, backbone not given here; MMAE drug conjugated at 5' end via linker, further chemistry not fully specified) [Conjugate 20, dye group of AP2 replaced with MMAE; linking group 2-(phosphate ester group-(CH2)6—S—)-MC-Val-Cit-PAB]
- tumor volumes at each time period [5]: smaller than those of the control groups 9b and 9e

Compound: MMAE-CmUmGmGmAmGmUmUmCmAmGmAmCmGmUmUmGmUmGmCmUmCmUmUm (CUGGAGUUCAGACGUUGUGCUCUU; all 2'-O-methyl, backbone not given here; MMAE drug conjugated at 5' end via linker, further chemistry not fully specified) [Conjugate 21]
- tumor volumes at each time period [5]: smaller than those of the control groups 9b and 9e
